Measurements as given in PMC2668518 (Bioconjugate chemistry, 2009).

Assay: Biodistribution of radiolabeled closo-borate
Assay type: in vivo, Male athymic mice (nu/nu)
Settings: mice; for tissue(s) with the highest concentration of radionuclide: 1 and 4 h pi; for concentration in urine: 1 h pi, urine at sacrifice; for route of excretion: inferred from tissue distribution at 1 and 4 h pi; for concentration in kidney: injected via lateral tail vein

[Et3NH]2B10H8I-CONHpropyl [[^125I]1e]
tissue(s) with the highest concentration of radionuclide: kidney
concentration in urine: 320 ± 135 %ID/g
route of excretion: renal clearance
concentration in kidney (1 h post injection): 6.6 %ID/g
concentration in kidney (4 h post injection): 0.27 %ID/g

[Et3NH]2B12H10At-CONHpropyl [[^211At]2c]
tissue(s) with the highest concentration of radionuclide: kidney
route of excretion: kidney

[Et3NH]2B12H10I-CONHpropyl [[^125I]2b]
tissue(s) with the highest concentration of radionuclide: kidney
route of excretion: kidney
concentration in kidney (1 h post injection): 19.8 %ID/g
concentration in kidney (4 h post injection): 26.5 %ID/g

[nBu4N]2B10H8At-CONHpropyl [[^211At]1c]
tissue(s) with the highest concentration of radionuclide: liver and intestines
concentration in urine: 33.11 ± 14.06 %ID/g

[nBu4N]2B10H8I-CONHpropyl [[^125I]1b]
tissue(s) with the highest concentration of radionuclide: liver and intestines
concentration in urine: 174.43 ± 90.33 %ID/g
route of excretion: hepatobiliary rather than renal
